Among the data in PubChem BioAssay AID651569 (Sanford-Burnham Center for Chemical Genomics, 2012) are IC50 values, retold here.

Active and inactive are the calls of the source. How the calls were made is not given here. A value given as a limit tells only on which side of the number the result lay.

The subject of this assay is luminescent cytotoxicity (cell viability) counter-screen. As to the kind of experiment: cytotoxicity of Gli-SUFU antagonist hits, dose response, cytotoxicity control for Gli-SUFU antagonist project, cell-based, luminescence, uHTS hits (AID 651569).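 Further: compound exposure lasted overnight before the viability readout.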
A word on the IC50: it is the concentration at which inhibition is half-maximal. For the compound `CNS(=O)(=O)c1cccc(C(=O)OCC(=O)c2cc(C)n(CC3CCCO3)c2C)c1` (stereo unspecified), the IC50 was > 20 µM (inactive).
As to `CCN1CCCC1CNc1ncnc2c1[nH]c1ccc(Cl)cc12` (stereo unspecified), the IC50 was > 20 µM (inactive).
The result for `Cc1ccc(-c2c[n+](Cc3ccc(Cl)c(Cl)c3)c3n2CCC3)cc1` reads 13.7 µM; that for `O=S(=O)(NCc1ccncc1)c1ccc(S(=O)(=O)NCC2CCCO2)cc1` (stereo unspecified), > 20 µM (inactive); that for `O=C(N[C@@H]1C/C=C\C[C@@H](CC(=O)N(CCO)Cc2ccccc2)C(=O)NCCOC1=O)OCC1c2ccccc2-c2ccccc21`, > 20 µM (inactive).
For the compound `CCCOc1ccccc1N/C(=N/c1nc(C)cc(C)n1)NC(=O)COc1ccc(OC)cc1`, the IC50 was > 20 µM (inactive).
Take `COc1ccccc1-c1c(-c2ccc(O)cc2O)n[nH]c1C(F)(F)F`: the IC50 was > 20 µM (inactive).
Consider `CC(C)Cn1c(N)c(C(=O)COC(=O)C2Cc3ccccc3CN2S(C)(=O)=O)c(=O)n(C)c1=O` (stereo unspecified), for which the IC50 is > 20 µM (inactive).
With `Cc1ccc2c(c1)S/C(=C/c1ccc[n+](C)c1)N2CCO`, the IC50 is > 20 µM (inactive).
For `CCCCn1c(SCc2c(C)noc2C)nc2cc(S(N)(=O)=O)ccc21`, the IC50 was > 20 µM (inactive).
`O=C(Cn1cnc2ccccc21)Nc1cccc(S(=O)(=O)N2CCCC2)c1`: the IC50 was > 20 µM (inactive).
`Cc1cccc(C)c1NC(=S)N(CCN1CCCCCC1)Cc1ccco1`: the IC50 is > 20 µM (inactive).
For `CCOc1ccc(-n2c(O)c(/C=N/Nc3nc(C)cc(C)n3)c3ccccc3c2=O)cc1`, the IC50 was > 20 µM (inactive).
As to `COCCNC(=O)CSCc1nc(-c2ccc(SC)cc2)oc1C`, the IC50 is > 20 µM (inactive).
As to `CC(=O)c1c(C)[nH]c(C(=O)OCC(=O)Nc2cccc(S(=O)(=O)N3CCCC3)c2)c1C`, the IC50 was > 20 µM (inactive).
As for `CCOC(=O)C1CCCN(S(=O)(=O)c2ccc(S(=O)(=O)N(CC)CC)cc2)C1` (stereo unspecified), the IC50 was > 20 µM (inactive).
As for `CCOc1ccc(-n2c(-c3ccc(Cl)cc3)c[n+]3c2SCC3)cc1`, the IC50 was 19 µM.
Regarding `Cc1nc2ccccc2n1Cc1ccc(Br)cc1`, the IC50 was > 20 µM (inactive).
For the compound `CCOC(=O)CC1CCCCN1C(=O)c1cc(COc2cccc3cnccc23)on1` (stereo unspecified), the IC50 was > 20 µM (inactive).
Turning to `COc1ccc(NS(=O)(=O)c2ccc(N3CCCCC3)c(N)c2)cc1`, the IC50 was > 20 µM (inactive).
With `CCCCOC(=O)c1[nH]c2c(c1C)C(=O)CC(c1cc(OC)c(OC)c(OC)c1)C2` (stereo unspecified), the IC50 is > 20 µM (inactive).
For `Cc1sc2ncnc(N3CCN(S(=O)(=O)c4ccc(C(C)(C)C)cc4)CC3)c2c1C`, the IC50 is > 20 µM (inactive).
With `CC(C)(C)OC(=O)NCCCCCc1cn(CC(=O)NCCCCCCCCCCC(=O)N2CCN(C(=O)OC(C)(C)C)CC2)nn1`, the IC50 was > 20 µM (inactive).
In the case of `CCn1cc[n+](C)c1P(c1ccccc1)c1ccccc1`, the IC50 was > 20 µM (inactive).
For the compound `CCOc1ccc(-c2nc(CSCC(=O)NC3CC3)c(C)o2)cc1`, the IC50 was > 20 µM (inactive).
As for `CCOc1ccc(OCc2ccc(C(=O)NN=Cc3ccc[nH]3)cc2)cc1`, the IC50 was 19.3 µM.
As for `O=C(N[C@@H]1C/C=C\C[C@@H](CC(=O)N(CCO)Cc2ccccc2)C(=O)NC[C@H](c2ccccc2)OC1=O)OCC1c2ccccc2-c2ccccc21`, the IC50 is > 20 µM (inactive).
As for `Brc1ccc(-c2csc(N3CCCCCC3)n2)cc1`, the IC50 is > 20 µM (inactive).
As for `COc1ccccc1C(=O)NC(=S)/C=C1/N(C)c2ccccc2C1(C)C`, the IC50 was > 20 µM (inactive).
For the compound `CN(Cc1nccs1)C(=O)c1cc(COc2cccc3cnccc23)on1`, the IC50 was > 20 µM (inactive).
Regarding `CC[C@@H](O)C[C@H]1CCC[C@@]2(C[C@@H]3OC(=O)/C=C/[C@@](C)(O)[C@@H](O)[C@H](C)[C@@H](O)[C@H](OC4CCC(N(C)C)C(C)O4)[C@@H](O)[C@](C)(O)CCCCC/C=C/[C@@H]4CC(C)(C)O[C@@]4(O)C[C@H](O2)[C@H]3C)O1` (stereo partly specified), the IC50 is > 20 µM (inactive).
For the compound `COc1ccc(-n2c(-c3ccc(Cl)cc3)c[n+]3c2CCc2ccccc2-3)cc1`, the IC50 is > 20 µM (inactive).
On to `CC(=O)c1cccc(NS(=O)(=O)c2ccc(-c3cnc(C4CC4)o3)cc2)c1`, for which the IC50 is 6.78 µM.
The result for `Cc1ccc(NC(=O)COc2ccccc2C(N)=O)cc1S(=O)(=O)N1CCCCCC1` reads 19.8 µM; that for `COc1ccc(CNCC(O)COc2cccc3c2OC(C)(C)C3)cc1` (stereo unspecified), > 20 µM (inactive).
As to `Cc1ccc(C2=C(CC(=O)O)C(=O)CC2)cc1`, the IC50 is > 20 µM (inactive).
The result for `COc1cc(C(=O)NC2CCN(C)CC2)ccc1Nc1ncc2c(n1)N(CCc1ccccc1)CCC(=O)N2C` reads > 20 µM (inactive); that for `Clc1ccc(-c2cn(-c3ccccc3)c3[n+]2CCS3)cc1`, > 20 µM (inactive).
The result for `CCn1c(=O)cc(SCC(=O)N2CCN(C3CCCCC3)CC2)c2ccccc21` reads > 20 µM (inactive).
For `CCn1c(=NC(=O)CS(=O)(=O)c2ccccc2)sc2cccc(OC)c21`, the IC50 was > 20 µM (inactive).
In the case of `CC(=O)c1cn(Cc2ccccc2F)c2ccccc12`, the IC50 is > 20 µM (inactive).
On to `CC(C)=CCC/C(C)=C/CNC(=O)C[C@H]1C[C@H](C(=O)N2CCOCC2)[C@@]2(C)c3[nH]c4cc(CCC(=O)N(C)C)ccc4c3CCN2C1=O`, for which the IC50 was > 20 µM (inactive).
For `Cc1ccc(C)c(-c2csc(NC(=O)C3=COCCO3)n2)c1`, the IC50 is > 20 µM (inactive).
Consider `CCOC(=O)CSc1c(-c2cccs2)[nH]c2ccccc12`, for which the IC50 was > 20 µM (inactive).
For `Cc1c(CCOC(=O)C23CC4CC(CC(C)(C4)C2)C3)sc[n+]1Cc1ccccc1`, the IC50 is > 20 µM (inactive).
The value for `COc1ccc(CN2CCC(C(=O)Nc3ccc(Oc4cccnc4)cc3)CC2)c(C)c1C` was 19.5 µM; that for `O=C(NCCNc1ccnc2cc(Cl)ccc12)c1ccccc1F` was > 20 µM (inactive); that for `COc1ccc(C(=O)C[n+]2cc(-c3ccc(OC)cc3)n3c2CCCC3)cc1` was > 20 µM (inactive).
As for `CC(=O)Nc1ccc(S(=O)(=O)N(Cc2ccccc2)C(C)C)cc1`, the IC50 was > 20 µM (inactive).
Consider `CC[N+](C)(CC)CCC(c1ccccc1)C1CCCCC1` (stereo unspecified), for which the IC50 was > 20 µM (inactive).
As to `CCCCCCCNC1=CC(=O)CC(c2ccccc2)C1` (stereo unspecified), the IC50 was 16.5 µM.
The value for `COc1ccc(-c2c(C#N)c(N)nc3c2CCc2ccccc2-3)cc1OC` was 8.1 µM.
Take `CCCCn1c(CN(C)Cc2ccccc2)nc2c1c(=O)n(C)c(=O)n2C`: the IC50 was > 20 µM (inactive).
`CC1Cc2cc(S(=O)(=O)N3CCC(C(=O)N4CCN(c5ccccc5F)CC4)CC3)ccc2N1C(=O)C1CC1` (stereo unspecified): the half-inhibitory concentration (IC50) is 7.01 µM.
Regarding `COCCNc1nc2c(c(=O)n(C)c(=O)n2C)n1Cc1cccc(C)c1`, the IC50 is > 20 µM (inactive).
The result for `COc1ccc(C2=[N+](C)CCn3cccc32)c(OC)c1` reads > 20 µM (inactive); that for `Cc1ncoc1C(=O)NC1CCCc2c1cnn2-c1ccc(C(C)(C)C)cc1` (stereo unspecified), > 20 µM (inactive).
With `Cc1ccc(S(=O)(=O)N2CCN(C(=O)C3CCN(c4ncnc5sc(C)c(C)c45)CC3)CC2)c(C)c1`, the IC50 is > 20 µM (inactive).
With `Cn1c(=O)c2c(nc(NCCOc3ccc(C(C)(C)C)cc3)n2C)n(C)c1=O`, the IC50 is > 20 µM (inactive).
As for `C(#Cc1ccccc1)C[N+]1(CC#Cc2ccccc2)CCCC1`, the IC50 is > 20 µM (inactive).
Take `Cc1cc(/C=C2/SC(=S)N(c3ccc([N+](=O)[O-])cc3)C2=O)c(C)n1-c1cccnc1`: the IC50 is > 20 µM (inactive).
Turning to `CCC(C)[C@H]1CN=C(N)N1CCc1cccc2ccccc12` (stereo partly specified), the IC50 is > 20 µM (inactive).
In the case of `O=S(=O)(c1ccc2c(c1)nc(COc1ccc(Cl)cc1)n2CC1CCCO1)N1CCOCC1` (stereo unspecified), the IC50 was > 20 µM (inactive).
In the case of `FC(F)Oc1ccc(-n2cc(-c3ccccc3)[n+]3c2CCCCC3)cc1`, the IC50 is > 20 µM (inactive).
As for `NC(=O)CC(NC(=O)c1ccccc1)c1ccc(N2CCCCCC2)c([N+](=O)[O-])c1` (stereo unspecified), the IC50 was > 20 µM (inactive).
Regarding `COc1ccc(Nc2nc(N3CCOCC3)nc(N3CCOCC3)n2)c(OC)c1`, the IC50 is > 20 µM (inactive).
For `N=c1c2c(n(Cc3ccc(F)cc3)c3c1CCC3)CCCC2`, the IC50 is > 20 µM (inactive).
As for `Cc1ccc(NC(=O)/C=C/c2ccco2)cc1S(=O)(=O)N1CCCCCC1`, the IC50 was 6.1 µM.
Consider `COc1ccc(-n2cc(-c3ccc(OC(F)F)cc3)[n+]3c2CCCCC3)cc1`, for which the IC50 was > 20 µM (inactive).
Turning to `O=C(Cc1csc(Nc2nc(=S)[nH]c3ccccc23)n1)NCCCN1CCN(c2ccccc2F)CC1`, the IC50 is > 20 µM (inactive).
In the case of `Cc1cc(Br)c(S(=O)(=O)NCc2ccncc2)cc1C`, the IC50 is > 20 µM (inactive).
The value for `CCCCSc1nc2sc3c(c2c(=O)n1-c1ccc(C)cc1)CCN(C)C3` was > 20 µM (inactive).
`COc1ccc(N2CCN(c3ncnc4c3[nH]c3ccccc34)CC2)cc1`: the IC50 was > 20 µM (inactive).
The result for `CCN(CC)S(=O)(=O)c1ccc(S(=O)(=O)N2CCCC(C(=O)NC3CC3)C2)cc1` (stereo unspecified) reads > 20 µM (inactive); that for `CC1CN(S(=O)(=O)c2ccc(C(=O)Nc3nc(-c4cc5ccccc5o4)cs3)cc2)CC(C)O1` (stereo unspecified), > 20 µM (inactive).
`O=C(c1cccc(S(=O)(=O)N2CCN(c3ccccc3)CC2)c1)N1CCCC(C(F)(F)F)C1` (stereo unspecified): the IC50 is > 20 µM (inactive).
`CCN1C(=O)CCN(C2CCCC2)c2nc(Nc3ccc(C(=O)NC4CCN(C)CC4)cc3OC)ncc21`: the IC50 was > 20 µM (inactive).
On to `CCOc1ccc(NS(=O)(=O)c2cccc(C(=O)N3CCN(C/C=C/c4ccccc4)CC3)c2)cc1`, for which the IC50 was > 20 µM (inactive).
For `CN1/C(=C\C(=O)COC(=O)CNC(=O)c2ccc3ccccc3c2)C(C)(C)c2ccccc21`, the IC50 was > 20 µM (inactive).
For the compound `Cc1ccc(OCCOC(=O)c2cc(S(=O)(=O)N3CCCCC3)ccc2N2CCOCC2)cc1`, the IC50 is > 20 µM (inactive).
Take `CCCCCCCOc1ccc(OC(=O)c2ccncc2)cc1`: the IC50 is > 20 µM (inactive).
